A short description of the series: Clearance in human liver microsomes. The series is classed as in vitro ADME. The note with it: hepatic extraction ratio; test compound 0.5 μM, microsomes 0.5 mg/mL, NADPH 1 mM, 37° C. The procedure: Test compound concentration is 0.5 μM, microsome concentration is 0.5 mg/mL and NADPH concentration is 1 mM in the incubation. The described method is performed by the liquid handling system Tecan RSP and is based on a 96-well format.
Control incubations with test compound without NADPH and test compound without microsomes are conducted to investigate non-CYP mediated metabolism and stability in phosphate buffer at 37° C., respectively.
The human liver microsomal suspension in phosphate buffer is mixed with NADPH. The mixture is pre-heated (7 min) to 37° C. Test compound is added, and the mixture is incubated for 30 minutes. Incubations are run in duplicate. Samples are withdrawn at predetermined stop times and mixed with methanol containing internal standard (IS) to terminate all enzyme activity and precipitate proteins. A control without NADPH (to detect problems such as nonspecific protein binding, heat instability or non-CYP mediated metabolism) and a control without microsomes (for assessing compound stability in the absence of any active enzymes) are tested.
The percentage of organic solvent in the incubations is less than 1%. Careful inspections of reagents are performed prior to the start of any experiment to ensure all reagents are in solution.
The 96-well plates are centrifuged. Test compound depletion, using a compound specific LC/MS/MS method, is determined.
The logarithm of the peak area ratios of test compound to internal standard (IS) versus incubation time is plotted in a graph.
The rate constant (k) (min^−1) of test compound depletion is calculated from the linear part of the curve and the half-time (t1/2) in minutes can be calculated from the rate constant (Eq. 2).
Intrinsic clearance (CIint) (mL/min/mg protein) is calculated from: […]
where c is the microsomal protein concentration in mg/mL.
Conversion to apparent clearance (CIapp) (mL/min/kg) is done by Eq. 4:
CIapp=CIint×a×b/d (Eq. 4)
where a, b and d are the scaling factors for normalizing CIint to human body weight.
a: 45 (microsomal protein/liver weight (mg/g))
b: 1500 (liver weight (g))
Hepatic clearance (CIh) (mL/min/kg) based on the well-stirred model is described as followed:
CIh=(CIapp·Q)/(CIapp+Q) (Eq. 5)
where Q is the liver blood flow in mL/min/kg (20 in humans).
Dividing hepatic clearance with liver blood flow, the hepatic extraction ratio (%) can be calculated:
Apparent clearance below approximately 10 mL/min/kg human body weight (corresponding to extraction ratio of approx. 33%) is considered as low clearance (high metabolic stability). Apparent intrinsic clearance above approximately 60 mL/min/kg human body weight (corresponding to extraction ratio of approx. 75%) is considered as high clearance (low metabolic stability).
For the molecule `COc1cc([C@@H](C)N[C@H]2CC[C@@H](c3ccc(OCC(=O)NCCNCCO)cc3)C2)ccc1F` [Compound 106, 2-[4-[(1R,3S)-3-[[(1R)-1-(4-Fluoro-3-methoxy-phenyl)ethyl]-amino]-cyclopentyl]phenoxy]-N-[2-(2-hydroxyethylamino)ethyl]acetamide], the “Clearance (% Eh) in human liver microsomes” value (“Clearance (% Eh)” for short) was “A (A: Eh < 33%)”.

With `COc1cc([C@@H](C)N[C@H]2CC[C@@H](c3ccc(OCC(=O)N4CCN(C(C)=O)CC4)cc3)C2)ccc1F` [Compound 109, 1-(4-Acetylpiperazin-1-yl)-2-[4-[(1R,3S)-3-[[(1R)-1-(4-fluoro-3-methoxy-phenyl)ethyl]amino]cyclopentyl]phenoxy]ethanone], the “Clearance (% Eh)” value is given as “A (A: Eh < 33%)”.

Take `C[C@@H](N[C@H]1CC[C@@H](c2ccc(OCC(=O)NC3CCNCC3)cc2)C1)c1cccc2ccccc12` [Compound 112, 2-[4-[(1R,3S)-3-[[(1R)-1-(1-Naphthyl)ethyl]amino]cyclopentyl]-phenoxy]-N-(4-piperidyl)acetamide]: the “Clearance (% Eh)” value was “A (A: Eh < 33%)”.

Consider `COc1cc([C@@H](C)N[C@H]2CC[C@@H](c3ccc(OCC(=O)NCCS(N)(=O)=O)cc3)C2)ccc1F` [Compound 104, 2-[4-[(1R,3S)-3-[[(1R)-1-(4-Fluoro-3-methoxy-phenyl)ethyl]-amino]-cyclopentyl]phenoxy]-N-(2-sulfamoylethyl)acetamide], for which the “Clearance (% Eh)” value is on record as “A (A: Eh < 33%)”.

On to `COc1cc([C@@H](C)N[C@H]2CC[C@@H](c3ccc(OCC(=O)NCCNS(C)(=O)=O)cc3)C2)ccc1F` [Compound 108, 2-[4-[(1R,3S)-3-[[(1R)-1-(4-Fluoro-3-methoxy-phenyl)ethyl]-amino]-cyclopentyl]phenoxy]-N-[2-(methanesulfonamido)ethyl]acetamide], for which the “Clearance (% Eh)” value was “A (A: Eh < 33%)”.

Consider `COc1cc([C@@H](C)N[C@H]2CC[C@@H](c3ccc(OCC(=O)N4CCNCC4)cc3)C2)ccc1F` [Compound 103, 2-[4-[(1R,3S)-3-[[(1R)-1-(4-Fluoro-3-methoxy-phenyl)ethyl]-amino]-cyclopentyl]phenoxy]-1-piperazin-1-yl-ethanone], for which the “Clearance (% Eh)” value is “A (A: Eh < 33%)”.

Consider `COc1cc([C@@H](C)N[C@H]2CC[C@@H](c3ccc(OCC(=O)N4CCN(S(N)(=O)=O)CC4)cc3)C2)ccc1F` [Compound 110, 4-[2-[4-[(1R,3S)-3-[[(1R)-1-(4-Fluoro-3-methoxy-phenyl)-ethyl]-amino]cyclopentyl]phenoxy]acetyl]piperazine-1-sulfonamide], for which the “Clearance (% Eh)” value is reported as “B (B: 33% ≦ Eh ≦ 75%)”.

These data come from patent US20130261132A1, “CALCIUM-SENSING RECEPTOR-ACTIVE COMPOUNDS” (LEO PHARMA A/S, priority 2010, published 2013).
